Measurements as given in patent US8455692B2, “Process for resolution of 1-(3-hydroxyphenyl)-2-methylamino ethanol” (Divi's Laboratories, Ltd., priority 2010, dated 2013).

Experiment: Solubility of phenylephrine base in water and methanol (Table 2)
Format: physicochemical
Method: One skilled in the art can improvise modifications to the above procedure in several aspects. For example it is possible to use the racemic phenylephrine hydrochloride salt, suspend it in methanol and add the requisite amount of alkali to liberate the free base before adding the R-naproxen to it. Phenylephrine base is not soluble in water but may be rendered soluble at a temperature above 80° and higher dilution but at lower dilution in hot methanol. Suitable combination of solvent, dilution and temperature may be chosen depending on the size of input. (See Table 2 below). R-naproxen may be added as a solution in methanol or as a solid to keep a low solvent ratio enabling better recovery of the salt.

Solubility (Methanol, 25-30° C., 1 g in 10 mL): Not soluble
Solubility (Methanol, 25-30° C., 1 g in 30 mL): Not soluble
Solubility (Methanol, 25-30° C., 1 g in 100 mL): Soluble
Solubility (Methanol, 60-80° C., 1 g in 10 mL): Not soluble
Solubility (Methanol, 60-80° C., 1 g in 30 mL): Soluble
Solubility (Methanol, 60-80° C., 1 g in 100 mL): Soluble
Solubility (Water, 25-30° C., 1 g in 10 mL): Not soluble
Solubility (Water, 25-30° C., 1 g in 30 mL): Not soluble
Solubility (Water, 25-30° C., 1 g in 100 mL): Not soluble
Solubility (Water, 60-80° C., 1 g in 10 mL): Not soluble
Solubility (Water, 60-80° C., 1 g in 30 mL): Not soluble
Solubility (Water, 60-80° C., 1 g in 100 mL): Soluble
Solubility (Water, 100° C., 1 g in 10 mL): Not soluble
Solubility (Water, 100° C., 1 g in 30 mL): Soluble
Solubility (Water, 100° C., 1 g in 100 mL): Soluble
Solubility in water (water): not soluble
SMILES: CNCC(O)c1cccc(O)c1 (racemic) [Phenylephrine base, 1-(3-hydroxyphenyl)-2-methylamino ethanol]
